Experimental data as given in patent US7560458B2, “Triazolopyrimidine derivatives as glycogen synthase kinase 3 inhibitors” (Janssen Pharmaceutica, N.V., priority 2003, dated 2009).

How the values were obtained:
GSK3β = GSK3β (Homo sapiens, UniProt P49841); test: GSK3beta assay (SPA, biotinylated phosphorylated CREB peptide, ATP-P33); type: biochemical; conditions: −log IC50 (M); given as ranges (>8; 7-8; <7); read-out: pIC50 (GSK3beta) (converted)
Method: (§1) GSK3beta assays were performed at room temperature in a 100 μl reaction volume of 25 mM Tris (ph 7.4) containing 10 mM MgCl2.6H2O 1 mM DTT, 0.1 mg/ml BSA, 5% glyceol and containing 5.7 ng/μl GSK3β, 5 μM biotinylated phosphorylated CREB peptide, 1 μM APT, 0.85 μCi/ml ATP-P^33 and a suitable amount of a test compound of formula (I). After one hour, the reaction was terminated by adding 70 μl of Stop mix (0.1 mM APT, 5 mg/ml streptavidin coated PVT SPA bead pH 11.0). The beads to which the phosphorylated CREB peptide is attached were allowed to settle overnight and the radioactivity of the beads was counted in a microtiterplate scintillation counter and compared with the results obtained in a control experiment (without the presence of a test compound) in order to determine the percentage of GSK3β inhibition. The IC50 value, i.e. the concentration (M) of the test compound at which 50% of GSK3β is inhibited, was calculated from the dose response curve obtained by performing the above-described GSKK3β assay in the presence of different amounts of the test compound.

GSK3alpha = GSK3alpha (Homo sapiens, UniProt P49840); test: GSK3alpha assay (same as the GSK3beta assay, GSK3alpha 0.25 ng/μl); type: biochemical; conditions: −log IC50 (M); given as ranges (>8; 7-8; <7); read-out: pIC50 (GSK3alpha) (converted)
Method: as §1
The GSK3alpha assay was performed in the same way as described above for the GSK3beta assay except for the concentration of GSK3alpha which is 0.25 ng/μl.

Sequence of GSK3β (P49841 whole entry, species assumed): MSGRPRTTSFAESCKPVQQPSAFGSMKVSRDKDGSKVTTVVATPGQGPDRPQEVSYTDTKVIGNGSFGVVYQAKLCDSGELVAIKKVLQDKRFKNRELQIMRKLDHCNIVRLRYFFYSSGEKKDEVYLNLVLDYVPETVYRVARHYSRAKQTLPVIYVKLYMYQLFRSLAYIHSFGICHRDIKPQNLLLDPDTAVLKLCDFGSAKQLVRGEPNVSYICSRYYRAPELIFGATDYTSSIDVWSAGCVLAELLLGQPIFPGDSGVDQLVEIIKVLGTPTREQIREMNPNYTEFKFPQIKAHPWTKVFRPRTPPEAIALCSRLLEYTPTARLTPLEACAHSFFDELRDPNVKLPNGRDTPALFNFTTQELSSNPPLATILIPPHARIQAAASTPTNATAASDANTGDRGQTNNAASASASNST
Sequence of GSK3alpha (P49840 whole entry, species assumed): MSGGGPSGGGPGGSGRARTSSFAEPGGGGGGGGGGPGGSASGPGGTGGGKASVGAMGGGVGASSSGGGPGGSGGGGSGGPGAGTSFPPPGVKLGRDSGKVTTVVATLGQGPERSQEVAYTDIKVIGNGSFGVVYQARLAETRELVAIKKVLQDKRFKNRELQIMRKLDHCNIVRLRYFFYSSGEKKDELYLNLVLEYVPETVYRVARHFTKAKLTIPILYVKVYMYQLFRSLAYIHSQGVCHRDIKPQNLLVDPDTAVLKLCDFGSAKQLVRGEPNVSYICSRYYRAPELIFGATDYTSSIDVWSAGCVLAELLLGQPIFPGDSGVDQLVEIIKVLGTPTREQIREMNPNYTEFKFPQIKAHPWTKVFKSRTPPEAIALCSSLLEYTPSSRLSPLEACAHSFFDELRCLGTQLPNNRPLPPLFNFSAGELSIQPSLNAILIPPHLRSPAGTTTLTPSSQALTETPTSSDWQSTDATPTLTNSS

SMILES	IC50 (GSK3β) [M]	IC50 (GSK3alpha) [M]
COc1ccc(Nc2ncc3nnn(-c4cccc(F)c4)c3n2)cn1 [Compound 91]	< 1e-08	< 1e-08
COCc1cccc(-n2nnc3cnc(Nc4cccc(C#N)c4)nc32)c1 [Compound 97]	< 1e-08	< 1e-08
CN(C)C(=O)c1cccc(Nc2ncc3nnn(-c4cccc(F)c4)c3n2)c1 [Compound 100]	< 1e-08	< 1e-08
O=C(NCCO)c1cccc(Nc2ncc3nnn(-c4cccc(F)c4)c3n2)c1 [Compound 101]	< 1e-08	< 1e-08
COCCNS(=O)(=O)c1cccc(Nc2ncc3nnn(-c4cccc(F)c4)c3n2)c1 [Compound 103]	> 1e-09	< 1e-08
COC(=O)c1cc(Nc2ncc3nnn(-c4cccc(F)c4)c3n2)ccc1NC(C)=O [Compound 104]	< 1e-08	< 1e-08
CSc1cccc(Nc2ncc3nnn(-c4cccc(F)c4)c3n2)c1 [Compound 122]	< 1e-08	< 1e-08
O=C(O)c1ccc(Nc2ncc3nnn(-c4ccccc4)c3n2)cc1 [Compound 123]	< 1e-08	< 1e-08
O=C(O)c1ccc(Nc2ncc3nnn(-c4cccc(Br)c4)c3n2)cc1 [Compound 124]	< 1e-08	< 1e-08
COCc1cccc(-n2nnc3cnc(Nc4ccc(C(=O)O)cc4)nc32)c1 [Compound 125]	< 1e-08	< 1e-08
COCc1cccc(Nc2ncc3nnn(-c4cccc(COC)c4)c3n2)c1 [Compound 132]	< 1e-08	< 1e-08
COCc1cccc(-n2nnc3cnc(Nc4ccc(OC)nc4)nc32)c1 [Compound 133]	< 1e-08	< 1e-08
COC(=O)c1cc(Nc2ncc3nnn(-c4cccc(F)c4)c3n2)ccc1N [Compound 134]	< 1e-08	< 1e-08
CC(=O)N(C)c1ccc(Nc2ncc3nnn(-c4cccc(F)c4)c3n2)cc1 [Compound 135]	< 1e-08	< 1e-08
O=C(O)c1ccc(Nc2ncc3nnn(-c4cccc(F)c4)c3n2)cc1O [Compound 136]	< 1e-08	< 1e-08
O=C(O)c1ccc(Nc2ncc3nnn(-c4cccc(F)c4)c3n2)cc1Cl [Compound 137]	< 1e-08	< 1e-08
COCc1cccc(-n2nnc3cnc(Nc4ccc(C(=O)O)c(Cl)c4)nc32)c1 [Compound 138]	< 1e-08	< 1e-08
COCc1cccc(-n2nnc3cnc(Nc4ccc(CCO)cc4)nc32)c1 [Compound 139]	< 1e-08	< 1e-08
COCc1cccc(-n2nnc3cnc(Nc4cccc(C(C)O)c4)nc32)c1 (stereo not drawn) [Compound 143]	< 1e-08	< 1e-08
COCc1cccc(-n2nnc3cnc(Nc4cccc(CO)c4)nc32)c1 [Compound 144]	< 1e-08	< 1e-08
NS(=O)(=O)c1ccc(Nc2ncc3nnn(-c4cccc(F)c4)c3n2)cc1 [Compound 145]	< 1e-08	< 1e-08
OCCc1ccc(Nc2ncc3nnn(-c4cccc(F)c4)c3n2)cc1 [Compound 147]	< 1e-08	< 1e-08
COCc1cccc(-n2nnc3cnc(Nc4cccc(C(=O)NCCNC(C)=O)c4)nc32)c1 [Compound 149]	1e-08 to 1e-07	< 1e-08
OCCc1cccc(Nc2ncc3nnn(-c4cccc(F)c4)c3n2)c1 [Compound 150]	< 1e-08	< 1e-08
COCc1cccc(-n2nnc3cnc(Nc4cccc(CCO)c4)nc32)c1 [Compound 151]	< 1e-08	< 1e-08
NC(=O)Cc1cccc(Nc2ncc3nnn(-c4cccc(F)c4)c3n2)c1 [Compound 153]	< 1e-08	< 1e-08
COCC(=O)NCc1cccc(-n2nnc3cnc(Nc4ccc(C(=O)O)cc4)nc32)c1 [Compound 155]	1e-08 to 1e-07	< 1e-08
COCC(=O)NCc1cccc(-n2nnc3cnc(Nc4ccc(NC(C)=O)c(C(=O)OC)c4)nc32)c1 [Compound 157]	< 1e-08	< 1e-08

Next, values leading:

IC50 (GSK3β) [M]	IC50 (GSK3alpha) [M]	SMILES
< 1e-08	< 1e-08	CN(C)S(=O)(=O)c1cccc(Nc2ncc3nnn(-c4cccc(F)c4)c3n2)c1 [Compound 94]
< 1e-08	< 1e-08	CNS(=O)(=O)c1cccc(Nc2ncc3nnn(-c4cccc(F)c4)c3n2)c1 [Compound 95]
1e-08 to 1e-07	1e-08 to 1e-07	COCc1cccc(-n2nnc3cnc(Nc4cccc(S(C)(=O)=O)c4)nc32)c1 [Compound 96]
< 1e-08	< 1e-08	NC(=O)CNS(=O)(=O)c1cccc(Nc2ncc3nnn(-c4cccc(F)c4)c3n2)c1 [Compound 98]
< 1e-08	< 1e-08	CC(=O)NCc1cccc(-n2nnc3cnc(Nc4cccc(NS(C)(=O)=O)c4)nc32)c1 [Compound 99]
< 1e-08	< 1e-08	CC(=O)NCCNS(=O)(=O)c1cccc(Nc2ncc3nnn(-c4cccc(F)c4)c3n2)c1 [Compound 102]
< 1e-08	< 1e-08	CC(=O)NCc1cccc(-n2nnc3cnc(Nc4cccc(C#N)c4)nc32)c1 [Compound 107]
< 1e-08	< 1e-08	CC(=O)NCc1cccc(Nc2ncc3nnn(-c4cccc(CNC(C)=O)c4)c3n2)c1 [Compound 108]
< 1e-08	< 1e-08	CC(=O)NCc1cccc(-n2nnc3cnc(Nc4cccc(NC(C)=O)c4)nc32)c1 [Compound 109]
< 1e-08	< 1e-08	CC(=O)NCc1cccc(-n2nnc3cnc(Nc4cccc(CO)c4)nc32)c1 [Compound 110]
< 1e-08	< 1e-08	CC(=O)NCc1cccc(-n2nnc3cnc(Nc4cccc(C(C)=O)c4)nc32)c1 [Compound 111]
< 1e-08	< 1e-08	CC(=O)NCc1cccc(-n2nnc3cnc(Nc4cccc(S(N)(=O)=O)c4)nc32)c1 [Compound 112]
< 1e-08	< 1e-08	CC(=O)NCc1cccc(-n2nnc3cnc(Nc4cccc(S(C)(=O)=O)c4)nc32)c1 [Compound 113]
1e-08 to 1e-07	1e-08 to 1e-07	COCc1cccc(-n2nnc3cnc(Nc4cccc(C(=O)O)c4)nc32)c1 [Compound 121]
< 1e-08	< 1e-08	CC(=O)NCc1cccc(-n2nnc3cnc(Nc4ccc(C(=O)O)cc4)nc32)c1 [Compound 126]
< 1e-08	< 1e-08	COc1ccc(Nc2ncc3nnn(-c4cccc(CNC(C)=O)c4)c3n2)cn1 [Compound 127]
1e-08 to 1e-07	1e-08 to 1e-07	CC(=O)NCc1cccc(-n2nnc3cnc(Nc4cccc(S(=O)(=O)NCCO)c4)nc32)c1 [Compound 131]
< 1e-08	< 1e-08	CNS(=O)(=O)c1cccc(Nc2ncc3nnn(-c4cccc(CNC(C)=O)c4)c3n2)c1 [Compound 140]
1e-08 to 1e-07	1e-08 to 1e-07	COCc1cccc(-n2nnc3cnc(Nc4cccc(S(=O)(=O)NCC(N)=O)c4)nc32)c1 [Compound 141]
< 1e-08	< 1e-08	COCc1cccc(-n2nnc3cnc(Nc4cccc(S(=O)(=O)NCCO)c4)nc32)c1 [Compound 142]
< 1e-08	< 1e-08	COCc1cccc(-n2nnc3cnc(Nc4ccc(S(N)(=O)=O)cc4)nc32)c1 [Compound 146]
1e-08 to 1e-07	1e-08 to 1e-07	COCc1cccc(-n2nnc3cnc(Nc4cccc(S(=O)(=O)NCCNC(C)=O)c4)nc32)c1 [Compound 154]
< 1e-08	< 1e-08	COCC(=O)NCc1cccc(-n2nnc3cnc(Nc4cccc(NC(C)=O)c4)nc32)c1 [Compound 156]
